Assay results as given in patent US20250144067A1, “PERSONALIZED STARVATION THERAPY FOR CANCER” (Faeth Therapeutics, Inc., priority 2021, published 2025).
Where a name gives a salt, the structure may show the parent alone. Read-outs that look alike come from different tables or passages of the source.

Key:
[1] = test system: NCI-H292 lung cancer cells; experiment: FDA drug screening, complete media vs cholesterol-free media without statin (TABLE 1); type: cell-based, human
[2] = test system: NCI-H292 lung cancer cells; experiment: FDA drug screening, complete media vs cholesterol-free media with simvastatin (TABLE 2); type: cell-based, human
[3] = NCI-H292 cells, FDA drug library screen, complete media
[4] = NCI-H292 cells, cholesterol-free media with simvastatin 0.04 μM, cell growth value in FDA drug screen
[5] = NCI-H292 cells, complete media, cell growth value in FDA drug screen
[6] = complete media minus cholesterol-free media + simvastatin, >0 enhanced anti-cancer activity, about 0 neutral, <0 antagonist
[7] = NCI-H292 cells, cholesterol-free media without statin
[8] = complete vs cholesterol-free media, greater than 0 enhanced anti-cancer activity, about 0 neutral, below 0 antagonists
[9] = NCI-H292 cells, FDA library drug in cholesterol-free media with simvastatin 0.04 μM
[10] = NCI-H292 cells, FDA library drug in complete media
[11] = complete media vs cholesterol-free media + simvastatin (0.04 μM), >0 enhanced anti-cancer activity, about 0 neutral, <0 antagonist
[12] = NCI-H292 cells, cholesterol-free media without statin, FDA drug library screen
[13] = NCI-H292 cells, complete media, FDA drug library screen
[14] = complete vs cholesterol-free media, >0 enhanced anti-cancer activity, about 0 neutral, <0 antagonist
[15] = Complete minus Cholesterol-free, >0 enhanced anti-cancer activity, about 0 neutral, <0 antagonist
[16] = NCI-H292 cells, cholesterol-free media with simvastatin 0.04 μM, FDA drug library screen (TABLE 2)
[17] = NCI-H292 cells, complete media, FDA drug library screen (TABLE 2)
[18] = complete media minus cholesterol-free media + simvastatin (0.04 μM), >0 enhanced anti-cancer activity, about 0 neutral, <0 antagonist
[19] = Complete minus Cholesterol-free, […]
[20] = NCI-H292 cells, cholesterol-free media with simvastatin 0.04 μM, […]
[21] = NCI-H292 cells, complete media, […]
[22] = complete media minus cholesterol-free media + simvastatin, […]

SMILES: CO/N=C(\C(=O)N[C@@H]1C(=O)N2C(C(=O)OC(C)OC(C)=O)=C(COC(N)=O)CS[C@H]12)c1ccco1 (stereo partly drawn) [Cefuroxime axetil]
- Difference ([1]; Complete minus Cholesterol-free, greater than 0 enhanced anti-cancer activity, about 0 neutral, below 0 antagonist): −0.18
- Cholesterol-free ([1]; NCI-H292 cells, FDA drug library screen, cholesterol-free media without statin): 0.8605
- Complete [1, 3]: 0.6767
- Cholesterol-free media + simvastatin (0.04 μM) [2, 4]: 1.05
- Complete Media [2, 5]: 1.073
- Difference [2, 6]: 0.02

SMILES: Cc1ccc(-c2cc(C(F)(F)F)nn2-c2ccc(S(N)(=O)=O)cc2)cc1 [Celecoxib]
- Cholesterol-free [1, 7]: 1.362
- Complete ([1]; NCI-H292 cells, complete media): 0.9472
- Difference [1, 8]: −0.42
- Cholesterol-free media + simvastatin (0.04 μM) [2, 4]: 1.271
- Complete Media [2, 5]: 1.302
- Difference [2, 6]: 0.03

SMILES: CC1=C(C(=O)O)N2C(=O)[C@@H](NC(=O)[C@H](N)c3ccccc3)[C@H]2SC1 [Cephalexin (monohydrate)]
- Cholesterol-free [1, 7]: 1.506
- Complete ([1]; NCI-H292 cells, complete media): 1.062
- Difference [1, 8]: −0.44
- Cholesterol-free media + simvastatin (0.04 μM) [2, 9]: 1.59
- Complete Media [2, 10]: 0.9161
- Difference [2, 11]: −0.67

SMILES: CC1=C(C(=O)O)N2C(=O)[C@@H](NC(=O)[C@H](N)c3ccccc3)[C@H]2SC1 [Cephalexin]
- Cholesterol-free [1, 7]: 1.173
- Complete ([1]; NCI-H292 cells, complete media): 0.8408
- Difference [1, 8]: −0.33
- Cholesterol-free media + simvastatin (0.04 μM) [2, 9]: 1.341
- Complete Media [2, 10]: 0.9798
- Difference [2, 11]: −0.36

SMILES: CC(=O)OCC1=C(C(=O)O)N2C(=O)[C@@H](NC(=O)Cc3cccs3)[C@H]2SC1 [Cephalothin (sodium)]
- Cholesterol-free [1, 12]: 0.5607
- Complete [1, 13]: 1.228
- Difference [1, 14]: 0.67
- Cholesterol-free media + simvastatin (0.04 μM) ([2]; NCI-H292 cells, drug in cholesterol-free media with simvastatin 0.04 μM): 0.9867
- Complete Media ([2]; NCI-H292 cells, drug in complete media): 0.7901
- Difference [2, 11]: −0.20

SMILES: CC(=O)OCC1=C(C(=O)O)N2C(=O)[C@@H](NC(=O)CSc3ccncc3)[C@H]2SC1 [Cephapirin (sodium)]
- Cholesterol-free [1]: 0.9897
- Complete [1]: 1.131
- Difference [1]: 0.14
- Cholesterol-free media + simvastatin (0.04 μM) [2]: 2.472
- Complete Media [2]: 1.209
- Difference [2]: −1.26

SMILES: CC1=C(C(=O)O)N2C(=O)[C@@H](NC(=O)[C@H](N)C3=CCC=CC3)[C@H]2SC1 [Cephradine]
- Cholesterol-free [1, 12]: 0.9298
- Complete [1, 13]: 1.756
- Difference [1, 14]: 0.83
- Cholesterol-free media + simvastatin (0.04 μM) [2, 9]: 1.213
- Complete Media [2, 10]: 0.8523
- Difference [2, 11]: −0.36

SMILES: Cc1cc(Nc2ncc(Cl)c(Nc3ccccc3S(=O)(=O)C(C)C)n2)c(OC(C)C)cc1C1CCNCC1 [Ceritinib dihydrochloride]
- Difference [1, 15]: −0.02
- Cholesterol-free [1, 12]: 0.3644
- Complete [1, 13]: 0.3489
- Cholesterol-free media + simvastatin (0.04 μM) ([2]; NCI-H292 cells, FDA drug library screen, cholesterol-free media with simvastatin 0.04 μM): 0.1666
- Complete Media [2, 3]: 0.03677
- Difference [2, 11]: −0.13

SMILES: Cc1cc(Nc2ncc(Cl)c(Nc3ccccc3S(=O)(=O)C(C)C)n2)c(OC(C)C)cc1C1CCNCC1 [Ceritinib]
- Difference [1, 15]: −0.05
- Cholesterol-free [1, 12]: 0.1038
- Complete [1, 13]: 0.05759
- Cholesterol-free media + simvastatin (0.04 μM) [2, 16]: 0.1163
- Complete Media [2, 17]: 0.0662
- Difference [2, 18]: 0.05

SMILES: O=C(O)COCCN1CCN(C(c2ccccc2)c2ccc(Cl)cc2)CC1 (stereo not drawn) [Cetirizine (dihydrochloride)]
- Difference [1, 15]: −0.28
- Cholesterol-free [1, 7]: 1.185
- Complete ([1]; NCI-H292 cells, complete media): 0.9092
- Cholesterol-free media + simvastatin (0.04 μM) [2, 4]: 0.9045
- Complete Media [2, 5]: 0.9315
- Difference [2, 6]: 0.03

SMILES: CCCCCCCCCCCCCCCC[n+]1ccccc1.O.[Cl-] [Cetylpyridinium (chloride monohydrate)]
- Difference [1, 19]: 0.03
- Cholesterol-free [1, 12]: −0.01651
- Complete [1, 13]: 0.01449
- Cholesterol-free media + simvastatin (0.04 μM) [2, 20]: 0.1519
- Complete Media [2, 21]: 0.2714
- Difference [2, 22]: 0.12

SMILES: CCCCCCCCCCCCCCCC[n+]1ccccc1.[Cl-] [Cetylpyridinium (chloride)]
- Difference [1, 19]: −0.03
- Cholesterol-free [1, 12]: 0.09243
- Complete [1, 13]: 0.05797
- Cholesterol-free media + simvastatin (0.04 μM) [2, 20]: 0.218
- Complete Media [2, 21]: 0.2381
- Difference [2, 22]: 0.02

SMILES: CC1OC2(CS1)CN1CCC2CC1 (stereo not drawn) [Cevimeline (hydrochloride hemihydrate)]
- Cholesterol-free [1, 12]: 0.5656
- Complete [1, 13]: 1.046
- Difference [1, 14]: 0.48
- Cholesterol-free media + simvastatin (0.04 μM) [2, 16]: 0.9444
- Complete Media [2, 17]: 0.9482
- Difference [2, 18]: 0.00
